Values of other authors, collected in patent US20140030313A1, “TREATMENT OF MENSTRUAL PAIN AND EXCESSIVE MENSTRUAL BLOOD LOSS BY INTRAVAGINAL ADMINISTRATION OF A LOW DOSE OF ANTIFIBRINOLYTIC OR HEMOSTATIC AGENT IN COMBINATION WITH NON-STEROIDAL ANTI-INFLAMMATORY DRUG” (ARSTAT Inc., priority 2011, published 2014).
Each block holds one molecule with its values, some of them ahead of it.

Columns and labels:
[1] = intravaginal tampon at 20% of the oral dose, vs oral capsules
[2] = not given; remark: listed apart in the source
[3] = oral, 6 g/day
[4] = not given; remark: listed apart in the source

Molecule: NC[C@H]1CC[C@H](C(=O)O)CC1 [Lysteda]
subjects returned to normal MBL after treatment (mean on-treatment MBL of less than 80 mL) (Lysteda NDA medical review): 44% | MBL reduction targets established by the FDA (oral, 3900 mg/day regimen): meets MBL reduction targets established by the FDA

Molecule: Cc1cccc(Nc2ccccc2C(=O)O)c1C [mefenamic acid]
pain relief [1]: pain relief equivalent to that achieved with the oral capsules

plasma concentrations ([2]; after a mouth rinse): below 2 mcg/mL | saliva concentrations, maximum level ([2]; after a mouth rinse): above 200 mcg/mL | time saliva concentration remained at a therapeutic level ([2]; after a mouth rinse): more than two hours | drug in saliva samples ([2]; after an oral tablet): not detected | mean drug plasma concentrations ([2]; after an oral tablet): 7000 ng/mL
Molecule: NC[C@H]1CC[C@H](C(=O)O)CC1 [tranexamic acid]
difference to placebo in reduction of large stains, small and large clots and changes in serum ferritin levels (tranexamic acid vs placebo treatment): no statistically significant differences | risk of gastrointestinal adverse events [3]: increased | incidence of postoperative bleeding complications ([4]; mouthwash, compared to placebo): reduce the incidence of postoperative bleeding complications

Molecule: aprotinin
plasma drug levels ([4]; locally administered): without detectable plasma drug levels | postoperative blood loss ([4]; locally administered): Reduction of the postoperative blood loss
